The values below come from patent US20040127428A1, “Use of D-ribose, including as a topical vehicle, to promote faster healing, including from surgical procedures” (priority 2002, published 2004).

Each structure is given as a SMILES string.

The test system of one test is wound or burn. As to the kind of experiment: healing of wounds and burns with ribose, alone or with antibiotics. It is filed as in vivo. The note with it: ribose by itself, taken internally and/or placed on the skin. The text has this:
TENS devices were part of patent application No. 09/545,121 as one of the non-living source energy devices and how they relate to D-ribose. Shortly before the turn of the 21st century, an important ATP precursor, D-ribose, became commercially available at prices low enough to enable it to be mass marketed. Before this Carniglia, et al, in U.S. Pat. Nos. 4,923,851 and 5,391,550 taught that ribose along with other nutrients helped heal induced skin lesions in mice but only as one of several listed precursors. […] The reason for this is that ribose is not available in quantity in food like other nutrients are. This component of ATP must be synthesized from glucose in the mitochondria in the glucose hexophosphate shunt (also called the pentose phosphate pathway) where a carbon atom is removed tediously by enzymatic action from glucose and phosphorylated over from 72 to 96 hours to provide the phosphorylated ribose radical. […]

Another test concerns actinic keratoses. As to the kind of experiment: daily oral intake of D-ribose by the inventor, actinic keratoses. It is filed as in vivo, human. As to conditions: 10 grams of D-ribose by mouth daily, after several months; inventor on themself. The source says: Another use for D-ribose is with certain skin lesions that are the result of solar-caused degeneration of the skin by exposure to the sun. This condition is commonly referred to as actinic keratosis. […] Since 5% of these lesions degenerate into squamous cell carcinomas, the use of ribose alone would be useful. On the other hand, it also may be used as part of a topical formulation. Topical 5-fluorouracil formulations (5-fluorouracil being a pyrimidine analogue with anti-neoplastic action because certain neoplasms incorporate uracil into their ribonucleic acid more readily than in normal cells) have been used to eradicate actinic keratosis in place of “spot” cryosurgery and curettage, with as much as 5% fluorouracil used. Recently there came on the market a new microsphere-based formulation using a microsphere vehicle called Microsponge® in a topical cream containing only 0.5% fluorouracil. It is applied once daily with good results and less than 1/40th the systemic fluorouracil absorption compared to that of 5% fluorouracil. The course of treatment ranged over a 4-week period. While using D-ribose systemically by itself works slowly on presumed, non-malignant actinic keratoses and senile keratoses when malignancy is questioned (as it always must be even with a histological or clinical diagnosis to the contrary), using D-ribose systemically is not enough for every case.

Consider `O=C[C@H](O)[C@H](O)[C@H](O)CO` [D-ribose], for which the healing result with wound or burn is listed as “helps healing significantly”. In addition, the “large actinic keratoses on forehead and wrists” value in the test with actinic keratoses is “simply disappeared”.
